From patent US20210253557A1, “SUBSTITUTED TRIAZOLE DERIVATIVES AND USES THEREOF” (Bayer Pharma Aktiengesellschaft, priority 2017, published 2021)
Where a name gives a salt, the structure may show the parent alone.

Key:
[1] = target: T1, human V2 receptor (Homo sapiens, UniProt P30518); test: Cellular in vitro assay for determining vasopressin receptor activity (V2, CRE-luciferase); format: cell-based; details: CHO cell line transfected with the human V2 receptor; [Arg8]-vasopressin at EC50 concentration; read-out: IC50 hV2
T1 construct: expressed in transfected cells; host or cells: CHO K1 (ATCC) expressing firefly luciferase under a CRE-responsive promoter
Method in brief: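 Antagonism was measured as inhibition of a 3-h, EC50-level [Arg8]-vasopressin stimulation, with compounds tested at several concentrations, yielding IC50 values. The read-out was cAMP-driven CRE-luciferase luminescence after lysis, in recombinant CHO K1 cells carrying human V2 receptor. Cells were seeded in 2% FCS DMEM/F12 one day earlier.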

[2] = target: T2, human V1a receptor (Homo sapiens, UniProt P37288); test: Cellular in vitro assay for determining vasopressin receptor activity (V1a, aequorin luminescence); format: cell-based; details: for IC50: CHO cell line transfected with the human V1a receptor, [Arg8]-vasopressin at EC50 concentration, read-out: IC50 hV1a; for ratio IC50 hV2/hV1a: selectivity ratio of IC50 hV2 to IC50 hV1a
T2 construct: expressed in transfected cells; host or cells: CHO K1 (ATCC), also stably transfected with a modified aequorin
T2 sequence (P37288 whole entry): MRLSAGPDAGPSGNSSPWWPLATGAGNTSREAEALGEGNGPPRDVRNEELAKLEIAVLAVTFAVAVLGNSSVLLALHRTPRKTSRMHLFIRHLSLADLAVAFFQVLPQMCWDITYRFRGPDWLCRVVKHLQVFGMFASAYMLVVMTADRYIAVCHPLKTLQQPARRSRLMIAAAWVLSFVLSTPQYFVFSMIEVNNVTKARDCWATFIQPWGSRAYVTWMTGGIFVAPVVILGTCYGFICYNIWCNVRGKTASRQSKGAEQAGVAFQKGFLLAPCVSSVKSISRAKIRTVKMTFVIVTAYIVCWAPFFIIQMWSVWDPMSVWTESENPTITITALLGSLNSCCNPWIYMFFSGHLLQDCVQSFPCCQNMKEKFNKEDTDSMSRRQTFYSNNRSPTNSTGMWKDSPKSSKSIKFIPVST

T1 sequence (P30518 whole entry): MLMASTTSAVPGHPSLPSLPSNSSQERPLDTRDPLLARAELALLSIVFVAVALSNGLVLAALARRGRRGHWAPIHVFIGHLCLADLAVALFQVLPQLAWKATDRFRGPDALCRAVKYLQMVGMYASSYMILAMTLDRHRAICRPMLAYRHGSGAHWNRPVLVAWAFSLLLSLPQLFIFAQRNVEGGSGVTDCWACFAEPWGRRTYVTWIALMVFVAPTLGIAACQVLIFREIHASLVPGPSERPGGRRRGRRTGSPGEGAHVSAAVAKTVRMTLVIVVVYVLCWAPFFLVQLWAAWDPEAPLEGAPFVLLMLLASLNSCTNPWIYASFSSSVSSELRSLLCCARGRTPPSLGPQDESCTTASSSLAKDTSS

Row | SMILES | IC50 [1] [nM] | IC50 [2] [nM] | ratio IC50 hV2/hV1a [2]
1 | C[C@H](OC(N)=O)c1nc(Cn2nc(-c3ccc(Cl)cc3)n(C[C@H](O)C(F)(F)F)c2=O)nn1-c1ncccc1F [Example 12, (1S)-1-[3-({3-(4-Chlorophenyl)-5-oxo-4-[(2S)-3,3,3-trifluoro-2-hydroxypropyl]-4,5-dihydro-1H-1,2,4-triazol-1-yl}methyl)-1-(3-fluoropyridin-2-yl)-1H-1,2,4-triazol-5-yl]ethyl Carbamate] | 127 | 35.5 | 3.6
2 | O=C1NC(c2nc(Cn3nc(-c4ccc(Cl)cc4)n(C[C@H](O)C(F)(F)F)c3=O)nn2-c2ccccc2Cl)CO1 (single isomer, unassigned) [Example 100] | 87.5 | 4.33 | 20.2
3 | O=C(NC(CO)c1nc(Cn2nc(-c3ccc(Cl)cc3)n(C[C@H](O)C(F)(F)F)c2=O)nn1-c1ccccc1Cl)C(F)(F)F (single isomer, unassigned) [Example 97] | 20 | 4.45 | 4.5
4 | CC(N)c1nc(Cn2nc(-c3ccc(Cl)cc3)n(C[C@H](O)C(F)(F)F)c2=O)nn1-c1ncccc1Cl (mixture of isomers) [Example 106, 2-({5-[1-Aminoethyl]-1-(3-chloropyridin-2-yl)-1H-1,2,4-triazol-3-yl}methyl)-5-(4-chlorophenyl)-4-[(2S)-3,3,3-trifluoro-2-hydroxypropyl]-2,4-dihydro-3H-1,2,4-triazol-3-one] | 18.5 | 1.65 | 11.2
5 | CC(C)(C)OCC(NC(=O)C(F)(F)F)c1nc(Cn2nc(-c3ccc(Cl)cc3)n(C[C@H](O)C(F)(F)F)c2=O)nn1-c1ccccc1Cl (mixture of isomers) [Example 94, N-{2-tert-Butoxy-1-[1-(2-chlorophenyl)-3-({3-(4-chlorophenyl)-5-oxo-4-[(2S)-3,3,3-trifluoro-2-hydroxypropyl]-4,5-dihydro-1H-1,2,4-triazol-1-yl}methyl)-1H-1,2,4-triazol-5-yl]ethyl}-2,2,2-trifluoroacetamide] | 27.5 | 1.1 | 25.0
6 | CN1C(=O)CC[C@@H]1c1nc(Cn2nc(-c3ccc(Cl)cc3)n(C[C@H](O)C(F)(F)F)c2=O)nn1-c1ncccc1Cl (single isomer, unassigned) [Example 105] | 51 | 2.1 | 24.3
7 | C[C@@H](OC(N)=O)c1nc(Cn2nc(-c3ccc(Cl)cc3)n(C[C@H](O)C(F)(F)F)c2=O)nn1-c1c(Cl)cncc1Cl [Example 20, (1R)-1-[3-({3-(4-Chlorophenyl)-5-oxo-4-[(2S)-3,3,3-trifluoro-2-hydroxypropyl]-4,5-dihydro-1H-1,2,4-triazol-1-yl}methyl)-1-(3,5-dichloropyridin-4-yl)-1H-1,2,4-triazol-5-yl]ethyl Carbamate] | 52 | 3.3 | 15.8
8 | CC(=O)NC(C)c1nc(Cn2nc(-c3ccc(Cl)cc3)n(C[C@H](O)C(F)(F)F)c2=O)nn1-c1ccccc1Cl (single isomer, unassigned) [Example 65] | 10.8 | 2.05 | 5.3
9 | CC(=O)NC(CO)c1nc(Cn2nc(-c3ccc(Cl)cc3)n(C[C@H](O)C(F)(F)F)c2=O)nn1-c1ccccc1Cl (single isomer, unassigned) [Example 93] | 15.5 | 0.78 | 20.0

Further lines, results first:

Row | IC50 [1] [nM] | IC50 [2] [nM] | ratio IC50 hV2/hV1a [2] | SMILES
10 | 35.5 | 1.02 | 34.8 | C[C@@H](OC(N)=O)c1nc(Cn2nc(-c3ccc(Cl)cc3)n(C[C@H](O)C(F)(F)F)c2=O)nn1-c1ncccc1Cl [Example 15, (1R)-1-[3-({3-(4-Chlorophenyl)-5-oxo-4-[(2S)-3,3,3-trifluoro-2-hydroxypropyl]-4,5-dihydro-1H-1,2,4-triazol-1-yl}methyl)-1-(3-chloropyridin-2-yl)-1H-1,2,4-triazol-5-yl]ethyl Carbamate]
11 | 16.7 | 0.99 | 16.9 | CCNC(=O)OCc1nc(Cn2nc(-c3ccc(Cl)cc3)n(C[C@H](O)C(F)(F)F)c2=O)nn1-c1ccccc1C(F)(F)F [Example 49, {3-({3-(4-Chlorophenyl)-5-oxo-4-[(2S)-3,3,3-trifluoro-2-hydroxypropyl]-4,5-dihydro-1H-1,2,4-triazol-1-yl}methyl)-1-[2-(trifluoromethyl)phenyl]-1H-1,2,4-triazol-5-yl}methyl ethylcarbamate]
12 | 5.29 | 25.9 | 0.2 | NC(=O)OCc1nc(Cn2nc(-c3ccc(Cl)cc3)n(C[C@H](O)C(F)(F)F)c2=O)nn1-c1cccc(Cl)c1 [Example 24, [1-(3-Chlorophenyl)-3-({3-(4-chlorophenyl)-5-oxo-4-[(2S)-3,3,3-trifluoro-2-hydroxypropyl]-4,5-dihydro-1H-1,2,4-triazol-1-yl}methyl)-1H-1,2,4-triazol-5-yl]methyl Carbamate]
13 | 3.17 | 0.74 | 4.3 | CC(N)c1nc(Cn2nc(-c3ccc(Cl)cc3)n(C[C@H](O)C(F)(F)F)c2=O)nn1-c1ccccc1Cl (mixture of isomers) [Example 60, 2-({5-[1-Aminoethyl]-1-(2-chlorophenyl)-1H-1,2,4-triazol-3-yl}methyl)-5-(4-chlorophenyl)-4-[(2S)-3,3,3-trifluoro-2-hydroxypropyl]-2,4-dihydro-3H-1,2,4-triazol-3-one trifluoroacetate]
14 | 5.29 | 18.3 | 0.3 | CC(N)c1nc(Cn2nc(-c3ccc(Cl)cc3)n(C[C@H](O)C(F)(F)F)c2=O)nn1-c1cccc(F)c1 (mixture of isomers) [Example 53, 2-({5-[1-Aminoethyl]-1-(3-fluorophenyl)-1H-1,2,4-triazol-3-yl}methyl)-5-(4-chlorophenyl)-4-[(2S)-3,3,3-trifluoro-2-hydroxypropyl]-2,4-dihydro-3H-1,2,4-triazol-3-one trifluoroacetate]
15 | 9.36 | 6.47 | 1.5 | CNC(=O)OCc1nc(Cn2nc(-c3ccc(Cl)cc3)n(C[C@H](O)C(F)(F)F)c2=O)nn1-c1cccc(F)c1 [Example 46, [3-({3-(4-Chlorophenyl)-5-oxo-4-[(2S)-3,3,3-trifluoro-2-hydroxypropyl]-4,5-dihydro-1H-1,2,4-triazol-1-yl}methyl)-1-(3-fluorophenyl)-1H-1,2,4-triazol-5-yl]methyl Methylcarbamate]
16 | 7.42 | 0.94 | 7.9 | C[C@@H](OC(N)=O)c1nc(Cn2nc(-c3ccc(Cl)cc3)n(C[C@H](O)C(F)(F)F)c2=O)nn1-c1ccccc1Cl [Example 31, (1R)-1-[1-(2-Chlorophenyl)-3-({3-(4-chlorophenyl)-5-oxo-4-[(2S)-3,3,3-trifluoro-2-hydroxypropyl]-4,5-dihydro-1H-1,2,4-triazol-1-yl}methyl)-1H-1,2,4-triazol-5-yl]ethyl Carbamate]
17 | 9.69 | 2.01 | 4.8 | COc1ccccc1-n1nc(Cn2nc(-c3ccc(Cl)cc3)n(C[C@H](O)C(F)(F)F)c2=O)nc1C(C)OC(N)=O (single isomer, unassigned) [Example 41]
